{"source": "BindingDB's records for patent US9675571", "about": "(Bristol-Myers Squibb, 2017)", "molecular_target": "Indoleamine 2,3-dioxygenase 1 (Homo sapiens, UniProt P14902)", "sequence (P14902 whole entry)": "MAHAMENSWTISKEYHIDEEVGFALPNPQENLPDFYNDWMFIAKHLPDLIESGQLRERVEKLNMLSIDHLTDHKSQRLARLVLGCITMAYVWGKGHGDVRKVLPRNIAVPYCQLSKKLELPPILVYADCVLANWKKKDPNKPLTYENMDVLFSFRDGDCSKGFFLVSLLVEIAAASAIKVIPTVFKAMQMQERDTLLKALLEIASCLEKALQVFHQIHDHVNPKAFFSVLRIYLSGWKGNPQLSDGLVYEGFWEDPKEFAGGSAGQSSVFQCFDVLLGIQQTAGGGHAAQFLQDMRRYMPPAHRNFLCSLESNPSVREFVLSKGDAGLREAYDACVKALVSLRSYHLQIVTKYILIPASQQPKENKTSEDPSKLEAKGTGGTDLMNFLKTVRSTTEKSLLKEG", "assay": "IDO Kynurenine Assay", "conditions": "25 °C", "procedure": "Human IDO1/HEK293 cells were seeded at 10,000 cells per 50 uL per well with RPMI/phenol red free media contains 10% FBS in a 384-well black wall clear bottom tissue culture plate (Matrix Technologies LLC) 125 nL of certain concentration of compound was then added to each well using ECHO liquid handling systems. The cells were incubated for 20 hours in 37° C. incubator with 5% CO2. The compound treatments were stopped by adding Trichloroacetic Acid (Sigma-Aldrich) to a final concentration at 0.2%. The cell plate was further incubated at 50° C. for 30 minute. The equal volume supernatant (20 uL) and 0.2% (w/v) Ehrlich reagent (4-dimethylaminobenzaldehyde, Sigma-Aldrich) in glacial acetic acid were mixed in a new clear bottom 384-well plate. This plate was then incubated at room temperature for 30 minute. The absorbance at 490 nm was measured on Envision plate reader.", "data": [{"molecule": "Cc1cc(NC(=O)Nc2cc([C@H]3C[C@H]3C(=O)O)ccc2N(CC(C)C)C2CCCCC2)on1", "note": "[US9675571, 129]", "values": [{"measurement": "EC50", "value": 0.5, "unit": "nM"}]}]}
